Results reported in US9073863B2, “Cyanoquinoline compounds having activity in correcting mutant-CFTR processing and increasing ion transport and uses thereof” (The Regents of the University of California, priority 2011, dated 2015).

Assays:
ΔF508-CFTR = molecular target: T1, ΔF508-CFTR (Homo sapiens, UniProt P13569, DEL508-508); experiment: Corrector assay, YFP fluorescence plate reader iodide influx in ΔF508-CFTR expressing FRT cells; type: cell-based
T1 construct: expressed in transfected cells; host or cells: Fischer rat thyroid (FRT) epithelial cells, stably transfected
In short: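 Corrector mode: cells treated 18–24 h at 37 °C with compound (25 μM screen, 0–25 μM dose-response), then 10 min forskolin 20 μM + genistein 50 μM. Potentiator mode: 27 °C-rescued cells given forskolin 20 μM + compound (0–25 or 0–50 μM) for 10 min. Initial iodide influx rate from exponential fit of YFP quenching, normalized to background-subtracted initial fluorescence.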

G551D-CFTR = molecular target: T2, G551D-CFTR (Homo sapiens, UniProt P13569, G551D); experiment: Plate reader assay of G551D-CFTR chloride conductance in FRT cells; type: cell-based; details: in the presence of 20 μM forskolin
T2 construct: expressed in transfected cells; host or cells: Fischer rat thyroid (FRT) epithelial cells, stably transfected
Description: Potentiator studies were also performed in FRT cells expressing G551D-CFTR, a CF-causing CFTR mutation with defective channel gating but not plasma membrane trafficking. […] Where indicated, genistein (100 μM) and CFTRinh-172 (10 μM) were added. Graphs are representative of 3 sets of measurements. […] Measurements were made in the presence of 20 μM forskolin.
Representative fluorescence quenching curves (FIG. 6B (top)) shown with deduced Compound 22 and genistein concentration dependence (FIG. 6B (bottom), SEM, n=4). Fluorescence plate reader assays in FIG. 6B confirmed that Compound 22 activated G551D-CFTR in the presence of forskolin, with lower maximal efficacy than genistein.

T1 sequence (P13569 with tags, fused parts or gaps DEL508-508): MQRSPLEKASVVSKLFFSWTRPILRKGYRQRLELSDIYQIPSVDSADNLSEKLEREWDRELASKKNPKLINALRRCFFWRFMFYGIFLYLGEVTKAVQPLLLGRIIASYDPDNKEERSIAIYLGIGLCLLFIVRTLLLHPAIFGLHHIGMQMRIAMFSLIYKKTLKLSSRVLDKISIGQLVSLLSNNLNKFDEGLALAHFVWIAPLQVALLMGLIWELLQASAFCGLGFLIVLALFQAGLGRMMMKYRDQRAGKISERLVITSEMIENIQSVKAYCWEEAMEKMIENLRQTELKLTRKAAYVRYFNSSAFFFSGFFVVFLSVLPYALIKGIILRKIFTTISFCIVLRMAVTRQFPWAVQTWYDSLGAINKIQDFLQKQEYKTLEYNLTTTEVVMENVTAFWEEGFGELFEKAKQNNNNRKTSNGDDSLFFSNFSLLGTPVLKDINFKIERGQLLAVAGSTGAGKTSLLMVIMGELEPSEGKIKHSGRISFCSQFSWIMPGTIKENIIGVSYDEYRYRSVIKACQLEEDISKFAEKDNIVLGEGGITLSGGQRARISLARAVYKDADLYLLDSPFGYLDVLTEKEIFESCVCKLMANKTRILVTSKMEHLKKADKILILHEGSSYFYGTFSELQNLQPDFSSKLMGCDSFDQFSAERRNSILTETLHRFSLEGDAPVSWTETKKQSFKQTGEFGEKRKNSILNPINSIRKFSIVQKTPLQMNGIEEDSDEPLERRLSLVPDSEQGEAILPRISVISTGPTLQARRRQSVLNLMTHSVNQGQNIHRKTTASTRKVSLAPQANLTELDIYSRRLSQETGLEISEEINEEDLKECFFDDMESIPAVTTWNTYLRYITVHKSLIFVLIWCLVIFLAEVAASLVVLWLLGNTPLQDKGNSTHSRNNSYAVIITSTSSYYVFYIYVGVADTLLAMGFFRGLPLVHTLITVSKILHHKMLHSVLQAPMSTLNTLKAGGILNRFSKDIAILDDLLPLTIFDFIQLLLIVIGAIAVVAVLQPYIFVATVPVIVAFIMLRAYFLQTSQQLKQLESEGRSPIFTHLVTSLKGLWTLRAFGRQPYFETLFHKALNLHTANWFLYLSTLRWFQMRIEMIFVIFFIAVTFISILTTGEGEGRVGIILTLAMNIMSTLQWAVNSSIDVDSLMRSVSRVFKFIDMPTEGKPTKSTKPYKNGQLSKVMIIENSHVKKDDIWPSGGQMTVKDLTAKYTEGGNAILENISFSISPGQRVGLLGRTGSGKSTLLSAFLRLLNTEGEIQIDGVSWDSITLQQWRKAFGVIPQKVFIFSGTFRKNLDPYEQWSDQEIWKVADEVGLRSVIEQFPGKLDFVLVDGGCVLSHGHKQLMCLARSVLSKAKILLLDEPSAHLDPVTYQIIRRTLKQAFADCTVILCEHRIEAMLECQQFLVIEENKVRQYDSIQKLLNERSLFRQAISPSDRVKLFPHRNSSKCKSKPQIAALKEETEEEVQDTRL
T2 sequence (P13569 whole entry G551D): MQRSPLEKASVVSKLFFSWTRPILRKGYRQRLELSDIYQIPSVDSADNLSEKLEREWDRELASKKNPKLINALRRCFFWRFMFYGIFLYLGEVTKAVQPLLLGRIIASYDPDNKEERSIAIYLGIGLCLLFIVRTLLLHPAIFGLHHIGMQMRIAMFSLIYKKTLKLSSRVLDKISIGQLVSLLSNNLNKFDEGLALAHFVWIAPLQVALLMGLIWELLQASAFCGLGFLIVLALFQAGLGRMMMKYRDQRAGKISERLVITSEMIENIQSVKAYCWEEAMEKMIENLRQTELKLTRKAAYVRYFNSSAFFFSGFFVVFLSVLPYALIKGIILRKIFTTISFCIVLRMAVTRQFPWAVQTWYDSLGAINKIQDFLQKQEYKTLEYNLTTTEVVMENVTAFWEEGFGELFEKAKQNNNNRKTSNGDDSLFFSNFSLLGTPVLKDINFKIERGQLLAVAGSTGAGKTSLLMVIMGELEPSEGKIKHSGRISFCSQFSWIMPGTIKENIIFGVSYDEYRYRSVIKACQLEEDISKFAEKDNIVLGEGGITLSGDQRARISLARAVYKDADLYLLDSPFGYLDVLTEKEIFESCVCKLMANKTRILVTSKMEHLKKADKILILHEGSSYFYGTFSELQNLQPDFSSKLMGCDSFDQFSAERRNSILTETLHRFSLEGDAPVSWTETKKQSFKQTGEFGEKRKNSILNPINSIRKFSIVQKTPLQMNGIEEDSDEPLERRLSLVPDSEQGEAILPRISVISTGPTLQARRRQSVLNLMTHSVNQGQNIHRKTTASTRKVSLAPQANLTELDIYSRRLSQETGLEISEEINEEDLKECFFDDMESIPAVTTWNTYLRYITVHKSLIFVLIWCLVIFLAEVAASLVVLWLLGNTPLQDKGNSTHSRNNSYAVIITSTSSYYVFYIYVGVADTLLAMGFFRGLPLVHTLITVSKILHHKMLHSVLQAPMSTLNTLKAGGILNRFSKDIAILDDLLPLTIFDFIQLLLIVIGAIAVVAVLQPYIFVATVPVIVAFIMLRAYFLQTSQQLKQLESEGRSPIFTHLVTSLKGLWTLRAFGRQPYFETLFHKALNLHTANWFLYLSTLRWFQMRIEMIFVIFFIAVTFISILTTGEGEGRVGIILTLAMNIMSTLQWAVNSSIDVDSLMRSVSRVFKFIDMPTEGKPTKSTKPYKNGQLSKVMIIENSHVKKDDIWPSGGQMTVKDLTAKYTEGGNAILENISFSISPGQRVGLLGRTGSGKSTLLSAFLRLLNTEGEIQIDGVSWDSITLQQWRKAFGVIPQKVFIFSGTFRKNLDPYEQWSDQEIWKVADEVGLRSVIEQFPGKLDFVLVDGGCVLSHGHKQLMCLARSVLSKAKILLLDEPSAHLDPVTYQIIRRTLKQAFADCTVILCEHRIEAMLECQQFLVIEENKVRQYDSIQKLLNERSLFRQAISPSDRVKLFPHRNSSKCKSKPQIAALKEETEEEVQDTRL

iodide influx after incubation at 27° C. (ΔF508-CFTR; Compound 22 (20 µM) or Corr-4a (10 µM), 24 h, 27° C., vs low-temperature rescue control): substantially increased iodide influx
iodide influx after incubation at 37° C. (ΔF508-CFTR; Compound 22 (20 µM) or Corr-4a (10 µM), 24 h, 37° C., with genistein): increased iodide influx
additivity of corrector action with Corr-4a (iodide influx) (ΔF508-CFTR; maximal concentrations of Compound 22 and Corr-4a, alone or in combination): significant additivity
maximum efficacy of G551D-CFTR activation (G551D-CFTR): lower than that of genistein
EC50 (G551D-CFTR; read-out: Apparent EC50 for activation of G551-CFTR): ~5 µM
SMILES: COc1cccc(C(=O)NCCNc2nc3cc(C)cc(C)c3cc2C#N)c1 [Compound 22, N-(2-((3-Cyano-5,7-dimethylquinolin-2-yl)amino)ethyl)-3-methoxybenzamide]
corrector and potentiator activities, in words (ΔF508-CFTR; concentration-dependence in corrector and potentiator I− influx assays (FIG. 2, FIG. 7)): both corrector and potentiator activities
